Experimental data from the NIST ThermoML archive (doi:10.1016/j.jct.2014.03.023).
± gives the expanded uncertainty stated by the source.

What was measured:
[1] = Pendant drop shape
[2] = molar heat capacity at constant pressure; settings: 101 kPa, Liquid, Small sample (50 mg) DSC
[3] = wn = mass fraction of the nth substance listed; settings: Pendant drop shape, w1 = 1

## CC[n+]1ccc(C)cc1.O=S(=O)([N-]S(=O)(=O)C(F)(F)F)C(F)(F)F
[1]; 298.2 K
  surface tension liquid-gas: 24.3 ± 0.4 mN/m
[1]; 303.2 K
  surface tension liquid-gas: 23.9 ± 0.4 mN/m
[1]; 313.2 K
  surface tension liquid-gas: 23.1 ± 0.4 mN/m
[1]; 323.2 K
  surface tension liquid-gas: 22.2 ± 0.4 mN/m
[2]; 296.2 K
  molar heat capacity at constant pressure: 627 ± 27 J/K/mol
[2]; 300.2 K
  molar heat capacity at constant pressure: 634 ± 27 J/K/mol
[2]; 304.2 K
  molar heat capacity at constant pressure: 637 ± 27 J/K/mol
[2]; 308.2 K
  molar heat capacity at constant pressure: 640 ± 27 J/K/mol
[2]; 312.2 K
  molar heat capacity at constant pressure: 644 ± 27 J/K/mol
[2]; 316.2 K
  molar heat capacity at constant pressure: 647 ± 27 J/K/mol
[2]; 320.2 K
  molar heat capacity at constant pressure: 649 ± 28 J/K/mol
[2]; 324.2 K
  molar heat capacity at constant pressure: 652 ± 28 J/K/mol
[2]; 328.2 K
  molar heat capacity at constant pressure: 655 ± 28 J/K/mol
[2]; 332.2 K
  molar heat capacity at constant pressure: 659 ± 28 J/K/mol
[2]; 336.2 K
  molar heat capacity at constant pressure: 665 ± 28 J/K/mol
[2]; 340.2 K
  molar heat capacity at constant pressure: 669 ± 28 J/K/mol
[2]; 344.2 K
  molar heat capacity at constant pressure: 674 ± 29 J/K/mol
[2]; 348.2 K
  molar heat capacity at constant pressure: 679 ± 29 J/K/mol
[2]; 352.2 K
  molar heat capacity at constant pressure: 685 ± 29 J/K/mol
[2]; 356.2 K
  molar heat capacity at constant pressure: 691 ± 29 J/K/mol
[2]; 360.2 K
  molar heat capacity at constant pressure: 697 ± 30 J/K/mol
[2]; 364.2 K
  molar heat capacity at constant pressure: 703 ± 30 J/K/mol
[2]; 368.2 K
  molar heat capacity at constant pressure: 708 ± 30 J/K/mol
[2]; 372.2 K
  molar heat capacity at constant pressure: 715 ± 30 J/K/mol

## CCn1cc[n+](C)c1.N#CN=C=[N-] [1-ethyl-3-methylimidazolium dicyanamide]
[1]; 298.2 K
  surface tension liquid-gas: 56.4 ± 0.9 mN/m
[1]; 303.2 K
  surface tension liquid-gas: 56 ± 0.9 mN/m
[1]; 313.2 K
  surface tension liquid-gas: 54.8 ± 0.9 mN/m
[1]; 323.2 K
  surface tension liquid-gas: 53.5 ± 0.8 mN/m

## CCn1cc[n+](C)c1.N#CN=C=[N-] [1-ethyl-3-methylimidazolium dicyanamide] + CC[n+]1ccc(C)cc1.O=S(=O)([N-]S(=O)(=O)C(F)(F)F)C(F)(F)F
[3]; 298.2 K
  surface tension liquid-gas: 56.4 ± 0.9 mN/m
[3]; 303.2 K
  surface tension liquid-gas: 56 ± 0.9 mN/m
[3]; 313.2 K
  surface tension liquid-gas: 54.8 ± 0.9 mN/m
[3]; 323.2 K
  surface tension liquid-gas: 53.5 ± 0.8 mN/m
